Data set [1] is described as follows: Bidirectional transport (Papp, efflux ratio) of antimalarials through Caco-2 cell monolayers. It is filed as in vitro ADME, human. To be noted: human; for Papp at 120 min: Caco-2, Caco-2 monolayers. The procedure: (§1) The initial experiments were conducted in mid-40s passage cells and repeated in early 80s passage Caco-2 cells. […] In order to maintain equivalent transport medium (HBSS/HBSS with inhibitor) level both outside and inside the chambers, 300 μL was used as medium in the apical chambers and 600 μL in the basolateral chambers. […] Drugs were co-incubated with MRCP, BCRP and ATP hydrolysis blockers to determine the involvement of other efflux mechanisms. Prior to the experiment, the transport medium, HBSS or HBSS with P-gp inhibitors were pre-incubated with the cells for 30 minutes. Following incubation, inserts were placed in new well plates and donor chamber is replaced with drug or drug with inhibitor and the receiver chamber with blank HBSS or HBSS with inhibitor. Transport medium was collected from the receiver chamber after stirring at time intervals of 30, 60, 90 and 120 minutes and was replaced with the same volume of fresh HBSS, or HBSS with inhibitor, when P-gp inhibitors were used in the study. At the end of the experiment 100 μL of medium was removed from the donor chamber in addition to medium collected from the receiver chamber during the study. The cells were then washed thoroughly in cold (4°C) PBS and cell membranes attached to the inserts were sonicated for 10 minutes in a sonicating water bath and centrifuged at 10,000 g for 10 minutes. Supernatant was frozen at -80°C until assayed. […] CL.vol=[…].vol = clearance volume (mL), n = time (min), Aa = amount in acceptor compartment at time n (pmols), Cd0 = concentration in donor compartment at time zero (nM), Vd = volume of the donor compartment (mL), Ca = concentration in acceptor compartment at the previous time point (nM), Vs = sample volume of previous time point (mL), Ac = amount of compound associated with the cells (pmol), Nfin = final time point (min). […] The cleared volume was plotted against time and the slope of the regression line was divided by the surface area to obtain the Papp values. […] The method from Davis and colleagues was adopted with slight modifications. Separations were performed using an Apollo C18 (5 μm, 4.6x150mm) column attached to a matched guard column (5 μm, 4.6x5.5 mm). […] The injection volume was 40 μL and column oven was maintained at 35°C. The analytes were detected at 222 nm and the retention time was 5.6 minutes. Assay developed by Pussard and co-workers were used and slight modifications were done to adjust laboratory conditions. Separation was done using a Prevail C18 (3 μm, 4.6x150mm) column attached to a Direct-connect^TM universal column prefilter. The mobile phase consisted of 20 mM (w/v) KH2PO4 in deionized water at pH 3.0 and acetonitrile (82:18) v/v. […] The injection volume was 40 μL and column oven was maintained at 30°C. The analytes were detected at 343 nm with a retention time of 2.4 minutes. […] Separations were performed using an Apollo C18 (5 μm, 4.6x150mm) column attached to matched guard column (5 μm, 4.6x5.5mm). […] The injection volume was 40 μL and column oven was maintained at 30°C. The analytes were detected at 660 nm with a retention time of 3.8 minutes. A 40 μL sample was spiked with 5 μL 0.5 mM artemisinin internal standard. […] The pipettor was adjusted to the maximum volume (100 μL). […] Pre-treated samples were loaded into the tips by gently aspirating and discarding into the same vial. The process was repeated 10 times in order to increase binding efficiency of drugs to the OMIX 96 C4 matrix. […] The LC-MS method described by […] and co-workers were modified to suit the LC-MS-MS conditions. […] Wexford, Ireland) at 40°C. […] Quantitation was performed in multiple reactions monitoring, MRM mode, using DUIS (ESI^+ and APCI^+) ion sources. […] The optimized mass spectra were acquired with an interface voltage of 4.5 kV, a detector voltage of 1.0 kV, a heat block temperature of 500°C and a desolvation temperature of 160°C.
Background: Passage across Caco-2 layers is used to estimate intestinal permeability.

A further data set concerns Caco-2 cell monolayers. The description is as above. It is filed as in vitro ADME, human. As to the method:
as §1

The test system of data set [2] is P-gp. To be noted: cited from earlier work.
The conditions of data set [3]: cited from earlier work.
The target of a further data set is T1, P-glycoprotein (P-gp) (Homo sapiens, UniProt P08183).
T1 construct: In-vitro Caco-2 cell monolayers were used here as a model for potential drug absorption related problems and P-gp mediated transport of drugs; endogenous in cells; host or cells: Caco-2 (human colon carcinoma, ATCC)
As to the kind of experiment: Bidirectional transport of rhodamine123 through Caco-2 monolayers co-incubated with antimalarials (P-gp inhibitory properties). It is filed as in vitro ADME. As to the method: The Caco-2 cells were seeded on 0.6 cm^2 […] Millipore PCF™ filter inserts at the cell density of 65,000 cells/cm^2 as done previously in the lab. Briefly, the cells were grown for 21–24 days to allow full maturation and formation of tight monolayers. The initial experiments were conducted in mid-40s passage cells and repeated in early 80s passage Caco-2 cells. The Trans epithelial electrical resistance (TEER) was measured immediately before and after the experiment using an epithelial voltage/ohm meter and an ENDOHM 12 chamber (World precision instruments, Sarasota, FL). TEER values were measured both before and after the study with readings above 300 Ω.cm^2 considered as acceptable for tight junctions. […] In order to maintain equivalent transport medium (HBSS/HBSS with inhibitor) level both outside and inside the chambers, 300 μL was used as medium in the apical chambers and 600 μL in the basolateral chambers. […] Drugs were co-incubated with MRCP, BCRP and ATP hydrolysis blockers to determine the involvement of other efflux mechanisms. Prior to the experiment, the transport medium, HBSS or HBSS with P-gp inhibitors were pre-incubated with the cells for 30 minutes. Following incubation, inserts were placed in new well plates and donor chamber is replaced with drug or drug with inhibitor and the receiver chamber with blank HBSS or HBSS with inhibitor. Transport medium was collected from the receiver chamber after stirring at time intervals of 30, 60, 90 and 120 minutes and was replaced with the same volume of fresh HBSS, or HBSS with inhibitor, when P-gp inhibitors were used in the study. At the end of the experiment 100 μL of medium was removed from the donor chamber in addition to medium collected from the receiver chamber during the study. The cells were then washed thoroughly in cold (4°C) PBS and cell membranes attached to the inserts were sonicated for 10 minutes in a sonicating water bath and centrifuged at 10,000 g for 10 minutes. Supernatant was frozen at -80°C until assayed. The Papp values of three well plates were determined using methods modified from Artursson’s group as described by Crowe and Lemaire.
CL.vol=Aa/{[Cd0×Vd−[Aa+(Ca×Vs)]−(Ac)×n/nfin]/Vd}
CL.vol = clearance volume (mL), n = time (min), Aa = amount in acceptor compartment at time n (pmols), Cd0 = concentration in donor compartment at time zero (nM), Vd = volume of the donor compartment (mL), Ca = concentration in acceptor compartment at the previous time point (nM), Vs = sample volume of previous time point (mL), Ac = amount of compound associated with the cells (pmol), Nfin = final time point (min). Papp = Apparent permeability (cm/sec) Rate of clearance (mL/min)=CL.vol / n Papp (cm/sec)=Rate of clearance / Surface area (cm^2)
The cleared volume was plotted against time and the slope of the regression line was divided by the surface area to obtain the Papp values. […] Mean Papp for Bas-Ap direction was divided by the Ap-Bas direction to obtain the efflux ratio and values above two were considered as drugs having true efflux transport.

In data set [4] the test system is P-gp. To be noted: 20 μM, 96 hours, Caco-2, western blot vs control. The procedure:
Caco-2 cells were seeded in 6 well plates at 10,000 cells/cm^2 for 21 days. Drugs and drug combinations at 20 μM prepared in cell growth medium were added on to the mature cells and exposed for 96 hours. After drug exposure, cells were washed three times using PBS and cell lysate was prepared in lysis buffer. The protein content was quantified using the 96 well micro-Lowry protein assay and regulation of P-gp was determined using western blotting.
The membrane was blocked using 2% casein in TBS and washed with TBST. The primary antibody; Mdr (G-1) mouse monoclonal IgG2b 200 and mouse anti-β actin were used as the antibody for β-actin, the reference protein. The antibody; HRP linked goat anti mouse IgG was used as the secondary antibody. The washed membrane was incubated in a BioRad clarity chemiluminescent substrate and enhancer was read and semi quantified using the BIORAD Chemidoc MPT imager with Image LabTM software.
For orientation: In western blotting, separated proteins are transferred to a membrane and probed.

In data set [5] the test system is Caco-2 intestinal epithelial cells. On the set-up: method as in PMID 8773952. To be noted: earlier report ref 53; cited from earlier work.
[6] abbreviates: summary in abstract, methylene blue depending on the direction of transport, read-out: permeability.

The values below come from PMC4821601, “The Interactions of P-Glycoprotein with Antimalarial Drugs, Including Substrate Affinity, Inhibition and Regulation” (PLoS ONE, 2016).

Where two headings read alike, the source gives them in different places. Marks after values point to notes of the source that are not given here.

A word on the efflux ratio: it is a quotient of directional permeabilities that is used to spot active efflux.

T1 sequence (P08183 whole entry): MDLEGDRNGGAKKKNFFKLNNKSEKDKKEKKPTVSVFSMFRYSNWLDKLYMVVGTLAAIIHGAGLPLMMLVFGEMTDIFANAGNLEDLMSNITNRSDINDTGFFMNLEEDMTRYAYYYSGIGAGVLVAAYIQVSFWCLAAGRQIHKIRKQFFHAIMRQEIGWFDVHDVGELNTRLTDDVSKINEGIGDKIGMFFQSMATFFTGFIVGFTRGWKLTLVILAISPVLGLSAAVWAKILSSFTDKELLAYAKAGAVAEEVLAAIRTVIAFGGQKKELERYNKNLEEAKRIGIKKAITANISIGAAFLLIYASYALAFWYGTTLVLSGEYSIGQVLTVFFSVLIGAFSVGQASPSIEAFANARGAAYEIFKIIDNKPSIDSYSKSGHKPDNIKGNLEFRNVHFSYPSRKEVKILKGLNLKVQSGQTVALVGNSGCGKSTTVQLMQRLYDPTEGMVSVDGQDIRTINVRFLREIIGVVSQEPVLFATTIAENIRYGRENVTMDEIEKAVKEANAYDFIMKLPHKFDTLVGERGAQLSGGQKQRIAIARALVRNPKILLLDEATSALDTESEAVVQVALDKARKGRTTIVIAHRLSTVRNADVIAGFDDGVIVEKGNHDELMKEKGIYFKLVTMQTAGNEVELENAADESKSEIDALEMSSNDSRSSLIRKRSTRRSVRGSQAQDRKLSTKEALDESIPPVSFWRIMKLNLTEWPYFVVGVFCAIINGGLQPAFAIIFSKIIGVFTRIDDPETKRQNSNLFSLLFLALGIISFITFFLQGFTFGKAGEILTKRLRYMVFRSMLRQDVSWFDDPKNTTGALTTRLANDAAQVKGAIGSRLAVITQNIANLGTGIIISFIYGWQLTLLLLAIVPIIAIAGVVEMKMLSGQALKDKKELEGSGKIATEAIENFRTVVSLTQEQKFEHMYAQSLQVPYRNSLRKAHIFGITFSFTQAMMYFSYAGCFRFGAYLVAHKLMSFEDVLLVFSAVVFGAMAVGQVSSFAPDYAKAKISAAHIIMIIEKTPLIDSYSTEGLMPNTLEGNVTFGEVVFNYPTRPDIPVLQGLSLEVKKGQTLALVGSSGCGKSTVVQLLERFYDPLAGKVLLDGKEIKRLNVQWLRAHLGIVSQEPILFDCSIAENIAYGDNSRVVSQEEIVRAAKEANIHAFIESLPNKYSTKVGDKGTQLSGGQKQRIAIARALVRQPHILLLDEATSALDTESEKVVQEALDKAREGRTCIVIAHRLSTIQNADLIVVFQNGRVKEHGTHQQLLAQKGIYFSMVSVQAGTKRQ

Consider `CCN(CC)Cc1cc(Nc2ccnc3cc(Cl)ccc23)ccc1O` [AQ, amodiaquine], for which the Papp at 120 min is 16 to 22 ×10⁻⁶ cm/s in data set [1] (drug alone, read-out: Ap-Bas directional Papp, range over concentrations tested) and approximately 20 ×10⁻⁶ cm/s in data set [1] (setting [6]). Besides, the Papp at 120 min, 10 µM in data set [1] (Caco-2, Conc (μM) + inhibitor (μM): 10, first-named drug measured, read-out: Papp Ap-Bas) was found to be 16 ± 1.1 ×10⁻⁶ cm/s. In addition, the Papp B→A at 120 min, 10 µM in data set [1] (Caco-2, Conc (μM) + inhibitor (μM): 10, first-named drug measured, read-out: Papp Bas-Ap) worked out at 21.5 ± 0.9 ×10⁻⁶ cm/s. For the same compound, in data set [1] (Caco-2, Conc (μM) + inhibitor (μM): 100, first-named drug measured, read-out: Papp Ap-Bas), the Papp at 120 min, 100 µM was 22.5 ± 2 ×10⁻⁶ cm/s. For the same compound, the Papp B→A at 120 min, 100 µM in data set [1] (Caco-2, Conc (μM) + inhibitor (μM): 100, first-named drug measured, read-out: Papp Bas-Ap) turned out to be 23.3 ± 0.8 ×10⁻⁶ cm/s. Further, the Net flow direction result is on record as “Efflux (0.02) ^*” in the data set on Caco-2 cell monolayers (Conc (μM) + inhibitor (μM): 10) and “Diffusion (0.74)” with Caco-2 cell monolayers (Conc (μM) + inhibitor (μM): 100). Moreover, in the data set on P-gp [2] (at 100 and 1000 μM ref 38), the P-gp inhibitory properties entry is “P-gp inhibitory properties”. Moreover, the tmax in data set [3] (oral administration in human ref 46) was less than 1 h.
For the compound `C[C@H]1[C@H](OC(=O)CCC(=O)O)O[C@@H]2O[C@@]3(C)CC[C@H]4[C@H](C)CC[C@@H]1[C@@]24OO3` [ART, artesunate], the Papp at 120 min in data set [1] (read-out: permeability across the gastrointestinal epithelium (class)) is 1 to 25 ×10⁻⁶ cm/s; in data set [1] (setting [6]), approximately 10 ×10⁻⁶ cm/s. The efflux ratio at 120 min, 50 µM in data set [1] (Caco-2, Conc (μM) + inhibitor (μM): 50, Bas-Ap divided by Ap-Bas) was found to be 1.5. Further, the Papp at 120 min, 50 µM in data set [1] (Caco-2, Conc (μM) + inhibitor (μM): 50, first-named drug measured, read-out: Papp Ap-Bas) was 10.2 ± 0.3 ×10⁻⁶ cm/s. In addition, the Papp B→A at 120 min, 50 µM in data set [1] (Caco-2, Conc (μM) + inhibitor (μM): 50, first-named drug measured, read-out: Papp Bas-Ap) was found to be 12.3 ± 0.1 ×10⁻⁶ cm/s. Also, the Net flow direction entry in the data set with Caco-2 cell monolayers (Conc (μM) + inhibitor (μM): 50) is “Efflux (0.002) ^*”. The Efflux ratio in the data set with Caco-2 cell monolayers (Conc (μM) + inhibitor (μM): 50, Bas-Ap divided by Ap-Bas) amounted to 1.2. In addition, the P-gp inhibitory properties result at P-glycoprotein (P-gp) (at 100 μM) and at P-glycoprotein (P-gp) (at test concentrations) was “did not exhibit P-gp inhibitory properties” throughout. In the data set with P-gp [4], the “regulation of P-gp expression” value is given as “slight up regulation of P-gp”.
Turning to `CN(C)c1ccc2nc3ccc(=[N+](C)C)cc-3sc2c1` [MB, methylene blue], the oral bioavailability in data set [3] (human volunteers, 100 mg ref 51) is 10%.
On to `C/C=C/C[C@@H](C)C(=O)[C@H]1C(=O)N[C@@H](C(C)C)C(=O)N(C)CC(=O)N(C)[C@@H](CC(C)C)C(=O)N[C@@H](C(C)C)C(=O)N(C)[C@@H](CC(C)C)C(=O)N[C@@H](C)C(=O)N[C@H](C)C(=O)N(C)[C@@H](CC(C)C)C(=O)N(C)[C@@H](CC(C)C)C(=O)N(C)[C@@H](C(C)C)C(=O)N1C` [PSC-833, PSC 833], for which the P-gp transport inhibition result in the data set with P-gp [2] (at 4 μM ref 19) is “completely eradicate P-gp mediated transport”.
As to `COC(=O)c1ccccc1-c1c2ccc(=N)cc-2oc2cc(N)ccc12` [Rh123, rhodamine123], the “Efflux ratio of rh123” value at P-glycoprotein (P-gp) (5 μM rh123, 100 μM antimalarial drugs section) stood at 4.7. Besides, the efflux ratio at 120 min, 5 µM on P-glycoprotein (P-gp) (human, Caco-2, probe rhodamine 123, 5 μM rh123, 100 μM antimalarial drugs section) was approximately 5; on P-glycoprotein (P-gp) (human, Caco-2, probe rhodamine 123, 5 μM rh123, 300 μM antimalarial drugs section) it was 5.7. Besides, the Papp at 120 min, 5 µM on P-glycoprotein (P-gp) (human, Caco-2, probe rhodamine 123, 5 μM rh123, 300 μM antimalarial drugs section, read-out: Papp of rh123 Ap-Bas) amounted to 0.5 ± 0.1 ×10⁻⁶ cm/s.
Take `C[C@H]1[C@H](OC(=O)CCC(=O)[O-])O[C@@H]2O[C@@]3(C)CC[C@H]4[C@H](C)CC[C@@H]1[C@@]24OO3.[Na+]` [sodium artesunate]: the Papp in data set [5] is 4 ×10⁻⁶ cm/s.
